Data set [1] relates to HeLa cells. Put plainly: Resazurin-based cell viability assay. On the set-up: species or system human. The following applies: 24 h incubation, up to 100 µM peptide. The procedure:
(§1) We used the following cell lines: HEK 293 (human embryonal kidney), HeLa (human cervix carcinoma), MCF-7 (human breast adenocarcinoma), HT-29 (human colon adenocarcinoma), K-562 (human chronic myeloid leukemia) and Jurkat (human T cell leukemia). All cells were cultured in 75 cm^2 culture flasks at 37 °C and 5% CO2 in a humidified atmosphere and split when confluent. For HEK 293 cells Dulbecco’s Modified Eagle Medium/ Ham’s F12 (without L-glutamine) containing 15% heat-inactivated foetal calf serum was used. HeLa and Jurkat cells were grown in supplemented RPMI 1640 (with L-glutamine) with 10% heat-inactivated foetal calf serum, MCF-7 cells in Dulbecco’s Modified Eagle Medium/ Ham’s F12 (without L-glutamine) containing 10% heat-inactivated foetal calf serum and 1% glutamine, and HT-29 and K-562 cells in Dulbecco’s Modified Eagle Medium supplemented with 10% heat-inactivated foetal calf serum. Detachment and dissociation of confluent cells was done by Trp/EDTA (0.05%/0.02% in PBS). For microscopic studies cells were seeded in glass-bottomed 8-well plates, whereas cells for cell viability and flow cytometric studies were cultured in 96-well plates.

The subject of data set [2] is HeLa cells. Put plainly: Flow cytometric studies of peptide uptake. It is filed as cell-based, human. The settings on record: for uptake of chimeric peptide versus parent CPP: CF-labelled, 10 min, several peptide concentrations, flow cytometry. As for the experimental part:
Finally, cells were diluted with cold HBSS and inspected.
(In general: In flow cytometry, cells or beads pass a laser one at a time.)

For data set [3], the system named is HT-29 cells. Put plainly: MTT cell viability assay. In kind it is cell-based, human. The following applies: 24 h, 1-100 µM peptide. As for the experimental part: as §1
For data set [4], the system named is MCF-7 cells. Put plainly: MTT cell viability assay. The settings on record: 24 h, 1-100 µM peptide. It is filed as cell-based, human. As for the experimental part:
as §1
On the technique in general: Formazan colour is commonly taken as a measure of viable cells.

The test system of data set [5] is K562 cells. Put plainly: Flow cytometric analysis of cell viability (FDA/PI staining). It is filed as cell-based, human. The following applies: flow cytometry FDA/PI, 24 h, 1-50 µM peptide. As for the experimental part: as §1
(§2) Untreated cells were used as negative control.

The test system of data set [6] is Jurkat cells. The data set is described as above. In kind it is cell-based, human. The settings on record: flow cytometry FDA/PI, 24 h, 1-50 µM peptide. As for the experimental part: as §1, §2
Data set [7] has as its system several cell lines (MCF-7, HT-29, HEK293, K562, Jurkat). The following applies: for cytotoxicity, several cell lines: several cell lines (MCF-7, HT-29, HEK293, K562, Jurkat), concentrations of up to 100 µM.
Experimental: The effect of the peptides on the viability of HT-29 and MCF-7 cells was checked by using the MTT-assay. Therefore, cells were cultivated to subconfluency under standard conditions in 96-well plates. The treatment was performed with 1-100 µM of the peptides for 24 h. Then, 10-fold stock solution of MTT reagent (5 mg/mL in medium) was added to each sample, and the cells were incubated for further 2 h. Formazan crystals were solubilised with 200 µL DMSO per well. After incubation for 15 min at 400 rpm and RT, absorbance was measured with a Tecan Saphire plate reader (560 nm, reference filter 630 nm).
The viability after peptide treatment (1-50 µM peptide solutions) for 24 h of the suspension cell lines Jurkat and K562 was tested by using flow cytometry. For this purpose, 2.5 × 10^5 cells per sample were stained with fluorescein diacetate (FDA) (0.04 µg/100 µL cell suspension) and propidium iodide (PI) (25 µg/100 µL cell suspension) in FACS buffer (1% BSA in PBS). Samples were incubated for 15 min at RT in the dark, washed and resuspended in FACS buffer.
Viability of the stained cells was analysed using a FACS®Calibur and CellQuest Pro analysis software (both Becton Dickinson, Franklin Lakes, USA) and is represented as relative cell number of viable cells. Untreated cells were used as negative control. Excitation and emission settings were 488 nm and 525–550 nm for FDA and 488 nm and 564–606 nm for PI staining.
The test system of data set [8] is MDA-MB-231 breast cancer cells. The settings on record: cited from earlier work. From the text: (§3) Therefore, we further elucidated the cytotoxicity profiles of the chimeric peptides for several cell lines (including MCF-7, HeLa and HT-29 cells, as well as suspension cell lines K562 and Jurkat).
Data set [9] relates to K562 erythrocytes. The following applies: cited from earlier work.
Source text: as §3

One may read the IC50 as the point on the concentration scale where inhibition reaches its midpoint.

Positions of bridges follow the written chain, without caps; N, C: chain ends. Residues, ends and D or L forms follow the SMILES beside them. Chains are numbered I, II in the order given. Where only a bound is given, the exact number is not on record here.

Turning to `CC[C@H](C)[C@H](NC(=O)[C@H](CCCCN)NC(=O)[C@H](CC(N)=O)NC(=O)[C@H](CCCNC(=N)N)NC(=O)[C@H](Cc1ccccc1)NC(=O)[C@H](CCCCN)NC(=O)[C@H](CCCNC(=N)N)NC(=O)[C@H](CC(C)C)NC(=O)[C@H](CCCNC(=N)N)NC(=O)[C@H](CCCCN)NC(=O)[C@H](CCCNC(=N)N)NC(=O)[C@H](CC(C)C)NC(=O)CNC(=O)[C@H](CCC(=O)O)NC(=O)[C@H](CC(C)C)NC(=O)[C@H](CC(C)C)NC(=O)[C@H](CCC(=O)O)NC(=O)[C@H](C)NC(=O)[C@H](CC(C)C)NC(=O)[C@H](C)NC(=O)[C@H](CCC(=O)O)NC(=O)[C@H](CC(C)C)NC(=O)[C@H](CC(C)C)NC(=O)CN)C(=O)N[C@@H](CCCCN)C(=O)N[C@@H](CCC(=O)O)C(=O)N[C@@H](CCCCN)C(N)=O` [N-E5L-sC18] (H-GLLEALAELLEGLRKRLRKFRNKIKEK-NH2), the concentration for half-maximal inhibition (IC50) in [1] is 31.8 ± 1.9 µM; in [3], 72.1 ± 0.1 µM; in data set [4], 30.8 ± 4.1 µM; in data set [5], > 30 µM; in data set [6], 7.3 ± 1.7 µM. Further, the “uptake of chimeric peptide versus parent CPP” value in data set [2] is given as “higher uptake values”.
Turning to GLLEALAELLE [N-E5L], the “cellular translocation of the peptide alone” value in data set [2] (CF-labelled analogue, 60 min, several concentrations, fluorescence microscopy and flow cytometry) is “unable to translocate in cells”. For the same compound, the “cytotoxicity, several cell lines” value in data set [7] was “no cytotoxicity was observed”.
On to GRKKRRQRRRPPQ [Tat(48-60)], for which the “cytotoxic effects, all tested cell lines” value in data set [7] (all tested cell lines, data not shown) is “no cytotoxic effects”. Also, the membrane toxicity result in data set [8] is recorded as “no membrane toxicity”. Further, the haemolytic effect result in data set [9] is on record as “no haemolytic effect”.
As to GLRKRLRKFRNKIKEK [sC18], the “cytotoxicity, several cell lines” value in data set [7] is recorded as “no cytotoxicity was observed”.
On to `CC(C)C[C@H](NC(=O)CN)C(=O)N[C@@H](CC(C)C)C(=O)N[C@@H](CCC(=O)O)C(=O)N[C@@H](C)C(=O)N[C@@H](CC(C)C)C(=O)N[C@@H](C)C(=O)N[C@@H](CCC(=O)O)C(=O)N[C@@H](CC(C)C)C(=O)N[C@@H](CC(C)C)C(=O)N[C@@H](CCC(=O)O)C(=O)NCC(=O)N[C@@H](CCCNC(=N)N)C(=O)N[C@@H](CCCCN)C(=O)N[C@@H](CCCCN)C(=O)N[C@@H](CCCNC(=N)N)C(=O)N[C@@H](CCCNC(=N)N)C(=O)N[C@@H](CCC(N)=O)C(=O)N[C@@H](CCCNC(=N)N)C(=O)N[C@@H](CCCNC(=N)N)C(=O)N[C@@H](CCCNC(=N)N)C(=O)N1CCC[C@H]1C(=O)N1CCC[C@H]1C(=O)N[C@@H](CCC(N)=O)C(N)=O` [N-E5L-Tat(48-60)] (H-GLLEALAELLEGRKKRRQRRRPPQ-NH2), for which the IC50 in data set [1] is 29.4 ± 3.9 µM; in data set [3] it was 90.9 ± 0.2 µM; in [4] it was 39.3 ± 9.4 µM; in data set [5], > 30 µM; in [6] it was 7.9 ± 0.8 µM. Besides, the “uptake of chimeric peptide versus parent CPP” value in data set [2] is “higher uptake values”.
As for `CC[C@H](C)[C@H](NC(=O)[C@H](C)NC(=O)[C@@H](NC(=O)[C@H](CCC(N)=O)NC(=O)[C@@H]1CCCN1C(=O)[C@H](Cc1ccccc1)NC(=O)[C@@H](NC(=O)[C@H](Cc1c[nH]cn1)NC(=O)[C@H](Cc1ccccc1)NC(=O)[C@H](CCCCNC(=O)[C@H](C)NC(=O)[C@H](Cc1ccccc1)NC(=O)[C@H](CCCCN)NC(=O)[C@H](CCCNC(=N)N)NC(=O)[C@H](CCCCN)NC(=O)[C@H](CCCCN)NC(=O)[C@H](CCCCN)NC(=O)[C@@H]1CCCN1C(=O)[C@H](C)NC(=O)[C@H](CCCCN)NC(=O)[C@H](CCCNC(=N)N)NC(=O)[C@H](CCCCN)NC(=O)[C@@H](N)CCCCN)NC(=O)[C@H](CCC(=O)O)NC(=O)[C@H](CC(C)C)NC(=O)[C@H](CC(C)C)NC(=O)[C@H](CCC(=O)O)NC(=O)[C@H](C)NC(=O)[C@H](CC(C)C)NC(=O)[C@H](C)NC(=O)[C@H](CCC(=O)O)NC(=O)[C@H](CC(C)C)NC(=O)[C@H](CC(C)C)NC(=O)CN)[C@@H](C)O)[C@@H](C)O)C(=O)NCC(=O)N[C@H](C(=O)NCC(=O)N[C@@H](C)C(=O)N1CCC[C@H]1C(N)=O)C(C)C` [N-E5L-hCT(18-32)-k7] (I: H-GLLEALAELLEKFHTFPQTAIGVGAP-NH2 / II: H-KKRKAPKKKRKFA; amide I:12-II:C; N-terminus assumed), the 50% inhibitory concentration (IC50) in data set [1] was 33.1 ± 3.3 µM; in data set [3] it was 59.1 ± 0.1 µM; in data set [4] it was 37.8 ± 6.5 µM; in [5], > 30 µM; in data set [6], 11.4 ± 4.2 µM. Further, the “uptake of chimeric peptide versus parent CPP” value in data set [2] was “higher uptake values”.

(Values after paper PMC3978507, “Fusion of a Short HA2-Derived Peptide Sequence to Cell-Penetrating Peptides Improves Cytosolic Uptake, but Enhances Cytotoxic Activity” (Pharmaceuticals, 2009).)
